Test results as given in patent publication US20050239809A1, “Methods for treating and preventing hypertension and hypertension-related disorders” (priority 2004, published 2005).

Test system: endothelium-denuded aorta from DOCA-salt and sham rats
Assay: Spontaneous tone of endothelium-denuded thoracic aorta in isolated tissue baths (isometric force)
Set-up: species or system rat
Description: Endothelial cell-denuded thoracic aorta, removed from pentobarbital (60 mg kg^-1, i.p.) anesthetized rats, were pair-mounted (Sham/DOCA) in isolated tissue baths for measurement of isometric force. (Florian and Watts (1999) Am. J. Physiol., 276: […]-[…]) Tissues were challenged with a maximal concentration of a adrenergic agonist, phenylephrine (PE) (10^-5 mol/L). IC87114 (ICOS Corporation, Bothell, Wash.) concentration response curves were generated by adding increasing concentrations of IC87114 (1×10^-9-3×10^-4 mol/L) with measurements of spontaneous tone taken every 30 minutes. Aortic strips from DOCA-salt rats were also exposed to 20 μmol/L IC87114 or vehicle for 1 hour and measurements of spontaneous tone were recorded. […] Tissues were under passive tension for optimal force production. […] The effect of IC87114 was reversible in all experiments, as spontaneous tone was restored upon washing out of IC87114. In further experiments using an IC87114 concentration equivalent to that used in previous experiments with LY294002 (20 μmol/L) (Example 1), IC87114 (20 μmol/L) or vehicle (0.1% DMSO) was incubated with aortic strips from DOCA-salt rats for 1 hour in isolated tissue baths.

## Cc1ccccc1-n1c(Cn2cnc3c(N)ncnc32)nc2cccc(C)c2c1=O [IC87114, 2-(6-aminopurin-9-ylmethyl)-5-methyl-3-o-tolyl-3H-quinazolin-4-one]
20 μmol/L, 1 hour incubation, compared to vehicle (0.1% DMSO), P<0.05
  effect on spontaneous tone in aorta from DOCA-salt rats, single concentration: significantly inhibits spontaneous tone development
10^−9 to 3×10^−4 mol/L, absence of agonist, endothelium-denuded aortic strips
  effect of increasing concentrations on spontaneous tone in aorta from DOCA-salt rats: reduced spontaneous tone in a concentration-dependent manner
Aorta from DOCA-salt rats
  reversibility of effect on spontaneous tone upon washing out: reversible
